The values that follow come from patent publication US10399966B2, “Compounds for treatment of trypanosomes and neurological pathogens and uses thereof” (The University of North Carolina at Chapel Hill, priority 2016, dated 2019).

A short description of series [1]: Metabolic stability in human liver microsomes. Conditions: for Human microsomes, percentage of compound remaining / half-life at 1.5 μM: Table 12; for Human microsomes, percentage of compound remaining: after 60 min (where t1/2 > 60 min); for half-life at 1.5 μM: 37° C., NADPH (1 mM), microsomes 0.5 mg/mL, test compounds 1.5 μM, read-out: Human microsomes t1/2. Type of series: in vitro ADME. As for the experimental part:
(§1) Metabolic stability was evaluated using liver microsomes derived from mouse and human sources. Microsomal incubations were carried out according to a protocol described previously (Wang et al., Antimicrob. Agents Chemother. 54:2507 (2010)) with modifications. Briefly, substrate stock solutions were prepared in DMSO and DMSO content was kept at 0.5% (v/v) in final incubations. Incubation mixtures ([…]), liver microsomes (0.5 mg/mL) from mouse (pool of 1000, CD-1 male mouse) or human (pool of 50, mixed gender) (XenoTech LLC, Lenexa, Kans.) in a phosphate buffer (100 mM, pH 7.4) containing 3.3 mM MgCl2. After a 5-minute pre-equilibration period at 37° C., reactions (in triplicate) were initiated by adding the NADPH cofactor (1 mM). For NADPH-independent reactions, the cofactor was replaced with water. Aliquots (10 μl) of the reaction mixtures were removed at 0, 15, 30, and 60 minutes and individually mixed with 200 μL of ice-cold acetonitrile containing internal standard. The mixtures were vortex-mixed, and precipitated protein was removed by centrifugation at 2,250×g for 15 min. The supernatant fractions were dried using a 96-well microplate evaporator (Apricot Designs Inc., Covina, Calif.) under N2 at 50° C. and reconstituted with 100 μL 50% methanol containing 0.1% trifluoroacetic acid before UPLC-MS/MS analysis. In vitro half-life (t1/2) was obtained by analyzing the substrate concentration vs. incubation time curve using the one-phase exponential decay model (GraphPad Prism® 5.0, San Diego, Calif.).
(In general: Liver microsomes are a subcellular fraction often used to study metabolism.)

Series [2] relates to human lymphocytes CRL-8155. In words: Cytotoxicity against CRL-8155 cells. Conditions: human lymphoblasts; for EC50: read-out: CRL-8155 EC50, concentration required to inhibit growth by 50%.
Procedure: (§2) The selectivity of each compound for the parasite over each of the two cell lines was calculated.
The nature of series [3]: Metabolic stability in mouse liver microsomes. It is filed as in vitro ADME. The note with it: for Mouse microsomes, percentage of compound remaining / half-life at 1.5 μM: Table 12; for Mouse microsomes, percentage of compound remaining: after 60 min (where t1/2 > 60 min); for half-life at 1.5 μM: 37° C., NADPH (1 mM), microsomes 0.5 mg/mL, test compounds 1.5 μM, read-out: Mouse microsomes t1/2. How it is done: as §1

The subject of another series is human hepatocytes HepG2. The series is described as follows: Cytotoxicity against HepG2 cells. The note with it: for EC50: Homo sapiens, HepG2, read-out: HepG2 EC50.
The nature of series [4]: Cytotoxicity against HepG2 cells. Conditions: human.
Series [5] in a line: Distribution between mouse plasma and brain (brain penetration, ip). Type of series: in vivo. Conditions: for [compound]Brain / [compound]Plasma: ± SEM of 3 mice (compound 3: 6 mice); for Kp at 1 h / concentration at 60 min / concentration at 1 h: mouse, 5 mg/kg; for Kp at 1 h: read-out: Average brain/plasma ratio. The method, boiled down:
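Mice (n=3) received a single 5 mg/kg ip dose in 7% Tween 80, 3% ethanol, 5% DMSO, 0.9% saline and were sacrificed 1 h post-dose. Plasma and acetonitrile brain homogenates analysed by LC/MS/MS; brain concentration corrected for 2.5% vasculature volume, assuming 1 g = 1 mL.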

Series [6] can be described thus: Mouse oral pharmacokinetics. It is filed as in vivo. Conditions: for percent of the Cmax remaining: mouse oral 50 mg/kg. As for the experimental part:
[…] Experiments were performed with groups of three mice per compound. Plasma was separated and extracted with acetonitrile for measurements of compound concentrations by liquid chromatography/tandem mass spectrometry.

A further series concerns T. b. brucei. In words: In vitro antitrypanosomal activity against T. brucei (growth inhibition). It is filed as cell-based, Trypanosoma brucei. The note with it: Trypanosoma brucei; for EC90: read-out: T. brucei EC90. A digest of the protocol:
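Dose-response EC50 against T. brucei parasites with 0.4% DMSO final, 48 h at 37 °C; parasite density quantified by ATP luminescence (CellTiter-Glo).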

The next series can be described thus: in vitro. Conditions: human.
The next series concerns Trypanosoma cruzi. The series is described as follows: Efficacy against T. cruzi in vitro. The note with it: Trypanosoma cruzi; for EC90: read-out: T.cruzi EC90. Type of series: cell-based.
The next series relates to T. b. brucei TREU667. In words: Mouse efficacy model of chronic T. brucei infection. Type of series: in vivo. The note with it: single intraperitoneal dose 10 mg/kg on day 21. As for the experimental part:
For chronic efficacy, experiments were done in compliance with the University of Washington IACUC approved protocol. According to published procedures, groups of 5 mice were infected with 1×10^4 T. b. brucei (strain TREU667) at day 0 to establish a chronic infection. Treatment began on day 21 post-infection, and mice received 50 mg/kg test compound orally b.i.d. for 10 d (total of 20 doses) in a 200 μL volume of a vehicle composed of Phosal 53 MCT (60%), PEG400 (30%) and EtOH (10%). A control group received vehicle with no compound and another control group received a single intraperitoneal dose of diminazene aceturate at 10 mg/kg in water on day 21. […] Post dosing, parasitemia was monitored via microscopic examination of tail blood slides until 180 days post-infection. Mice were removed from the experiment once parasites were detected in the blood.
In a model of the chronic phase of HAT, compound 1 was administered to five mice infected with T. b. brucei TREU667 at 50 mg/kg/po b.i.d.×10 days, beginning 21 days post-infection. […] Efficacy PK blood samples were collected from three of the five mice prior to dose 15, and at 1 h and 6 h post-dose. […] Compound 1 attained 5/5 cures as determined by the absence of detectable parasitemia in any of the treated mice through 180 days post-infection (FIG. 2). […]

For series [7], the system named is human lymphocytes CRL-8155.
Procedure: as §2
[8] abbreviates: both sexes, human, liver microsomes, pH 7.4.
Setting [9] is: male, CD-1, mouse, liver microsomes, pH 7.4.
Setting [10] is: Table 8, groups of 3 mice (compound 3: ± SEM of 6 mice).
[11] abbreviates: Table 14, mice, single ip dose 5 mg/kg, one hour post-dose.
The mark [12] stands for this setting: Table 13, mice, single 50 mg/kg oral gavage, vehicle Tween 80 (7%), EtOH (3%), DMSO (5%) in 0.9% NaCl, ± SEM of 3 mice, read-out: Cmax.
[13] abbreviates: Table 8, read-out: T. brucei EC50.
Where [14] appears, read: Table 11, read-out: T. b. brucei EC50.
The mark [15] stands for this setting: Table 12, read-out: T. b. brucei EC50.
Setting [16] is: Table 9, read-out: T. brucei EC50.
The mark [17] stands for this setting: Table 10, read-out: T.cruzi EC50.

Each structure is given as a SMILES string. Read-outs that look alike come from different tables or passages of the source. Marks after values point to notes of the source that are not given here. Some results are limits rather than exact numbers.

What is called melting point is the temperature, or range, at which the solid turns liquid. One may read the EC50 as the concentration giving half of the maximal effect. Usually EC90 stands for the concentration needed for an effect of 90%. Usually Cmax stands for the highest concentration seen after dosing. The term Tmax denotes the time at which the peak concentration occurs. For `O=C(Nc1ccc2sc(-c3ccc(F)c(F)c3)nc2c1)N1CCC(F)C1` (racemic) [Compound 3, 2-(3,4-Difluorophenyl)-5-(3-fluoro-N-pyrrolidylamido)benzothiazole], the melting point is 209 to 210 °C. Also, the “Human microsomes, percentage of compound remaining” value in [1] is on record as 99%. Besides, the half-life at 3 μM in series [1] (both sexes, human, liver microsomes, pH 7.4, Table 5, read-out: Microsome t1/2 (min) Human) is > 60 min. Besides, the half-life at 1.5 μM in series [1] (setting [8]) is > 1 h. Further, in series [2], the EC50 is > 50000 nM. For the same compound, the “Mouse microsomes, percentage of compound remaining” value in series [3] turned out to be 52%. Moreover, the half-life at 3 μM in series [3] (male, CD-1, mouse, liver microsomes, pH 7.4, Table 5, read-out: Microsome t1/2 (min) Mouse) worked out at 60 min. Further, the half-life at 1.5 μM in series [3] (setting [9]) is > 1 h. For the same compound, the EC50 with human hepatocytes HepG2 was > 50000 nM. The EC90 in series [4] is > 50000 nM. Besides, in series [5] (setting [10]), the “Average [compound] brain” value is on record as 5.48 ± 0.683^a μM and the “Average [compound] plasma” value is given as 3.26 ± 0.630^a μM. In [5] (setting [11]), the “[compound]Brain” value is on record as 5.48 ± 0.683^b μM and the “[compound]Plasma” value is 3.26 ± 0.630^b μM. Moreover, the Kp at 1 h in series [5] (in vivo, Table 5, mouse brain penetration (60 min), n = 3) came out at 1.52 ± 0.0416. In [5] (in vivo, Table 5 r15, mouse brain penetration (60 min), n = 3), this compound gave a concentration at 60 min of 2.78 ± 0.652 µM. Also, the concentration at 60 min in series [5] (in vivo, Table 5 r17 (second line so headed), mouse brain penetration (60 min), n = 3) was determined as 4.22 ± 0.974 µM. For the same compound, in series [5] (in vivo, Table 8, groups of 3 mice), the Kp at 1 h amounted to 2.11 ± 0.669. For the same compound, the “Mouse oral PK Tlast” value in series [6] (Table 5) was found to be 480 min. Moreover, the “Mouse oral PK Average AUC” value in series [6] (Table 5, n = 3) is given as 3847 ± 466 (n = 3) min * μmol/L. Moreover, the Cmax in series [6] (setting [12]) was found to be 10 ± 0.65 µM. For the same compound, the Cmax in series [6] (mouse, plasma, po, 50 mg/kg, Table 5, n = 3, read-out: Mouse oral PK Average Cmax) stood at 10 ± 1.1 µM. The Tmax in series [6] (mouse, plasma, po, 50 mg/kg, Table 5, read-out: Mouse oral PK Tmax (converted)) was 1 h. Besides, the EC50 with T. b. brucei (Table 6, read-out: T. brucei EC50) came to 51.9 nM. Moreover, the EC50 in the series with T. b. brucei (setting [13]) was 51.9 nM. The EC50 in the series on T. b. brucei (setting [14]) came to 51.9 nM. The EC50 with T. b. brucei (setting [15]) worked out at 51.9 nM. In the series on T. b. brucei (setting [16]), the EC50 came to 51.9 nM. In addition, in the series on T. b. brucei (Table 9), the EC90 was 91.9 nM. For the same compound, the EC90 in “in vitro” is > 50000 nM. In addition, the EC50 with Trypanosoma cruzi (Table 6, read-out: T. cruzi EC50) turned out to be 91.9 nM. Besides, the EC50 with Trypanosoma cruzi (setting [17]) was 177 nM. The EC90 in the series with Trypanosoma cruzi (Table 10) was found to be 525 nM.

In turn, `O=C(Nc1ccc2sc(-c3ccc(F)c(F)c3)nc2c1)N1C[C@@H](F)[C@H](F)C1` [Compound 35, (3R,4R)-2-(3,4-Difluorophenyl)-5-(3,4-difluoro-N-pyrrolidylamido)benzothiazole] had a melting point of 217 to 218 °C. The “Human microsomes, percentage of compound remaining” value in [1] is recorded as 96%. Moreover, the half-life at 1.5 μM in [1] (setting [8]) was > 1 h. The EC50 in [2] came out at 27100 nM. Also, the EC90 in series [2] (read-out: CRL-8155 EC90, concentration required to inhibit growth by 90%) is > 50000 nM. Moreover, the “Mouse microsomes, percentage of compound remaining” value in series [3] worked out at 67%. The half-life at 1.5 μM in series [3] (setting [9]) was > 1 h. The EC50 in the series with human hepatocytes HepG2 was > 50000 nM. The EC90 in the series on human hepatocytes HepG2 (read-out: HepG2 EC90, concentration required to inhibit growth by 90%, human hepatocytes) is > 50000 nM. Also, in [5] (setting [11]), the Brain/plasma ratio is given as 7.71 ± 1.63, the “[compound]Brain” value was 16.2 ± 2.88 µM and the “[compound]Plasma” value is 2.19 ± 0.424 µM. Moreover, the Kp at 1 h in series [5] (brain and plasma, intraperitoneal, Table 8, groups of 3 mice) came out at 7.71 ± 1.63. In [5] (brain, intraperitoneal, Table 8, groups of 3 mice (compound 3: ± SEM of 6 mice), read-out: Average [compound] brain), the concentration at 1 h was 16.2 ± 2.88 µM. In addition, in series [5] (plasma, intraperitoneal, Table 8, groups of 3 mice (compound 3: ± SEM of 6 mice), read-out: Average [compound] plasma), the concentration at 1 h was found to be 2.19 ± 0.424 µM. In [6] (Table 13, mice, single 50 mg/kg oral gavage, vehicle Tween 80 (7%), EtOH (3%), DMSO (5%) in 0.9% NaCl, ± SEM of 3 mice), the “AUC0 min-∞” value is 13515 ± 224.6 µM·min. The Cmax in [6] (setting [12]) worked out at 11 ± 0.58 µM. Besides, the “percent of the Cmax remaining” value in series [6] (24 h time point) is 34%. Further, the “percent of the Cmax remaining” value in [6] (32 h time point) is > 17%. Further, the EC50 with T. b. brucei (setting [13]) turned out to be 114 nM. Further, the EC50 with T. b. brucei (setting [14]) came out at 114 nM. In addition, the EC50 in the series with T. b. brucei (setting [15]) was 114 nM. Further, the EC50 with T. b. brucei (setting [16]) amounted to 114 nM. In the series on T. b. brucei (Table 9), the EC90 is 747 nM. In addition, the EC50 with Trypanosoma cruzi (setting [17]) worked out at 562 nM. Further, the EC90 with Trypanosoma cruzi (Table 10) worked out at 652 nM.

For `N=C(N)c1ccc(/N=N/Nc2ccc(C(=N)N)cc2)cc1` [diminazene aceturate, reference compound], the “parasitemia outcome (in words)” value in the series with T. b. brucei TREU667 is given as “temporary clearance of parasitemia, but subsequently relapsed”.

Take `CCN(CC)CCCC(C)Nc1c2ccc(Cl)cc2nc2ccc(OC)cc12` (stereo not drawn) [quinacrine, reference compound]: the EC50 in the series with human hepatocytes HepG2 stood at 10400 nM. The results for the EC90 (with human hepatocytes HepG2 (human); in series [7]) were 18200 nM and 9940 nM, respectively.
